Target: T1, PD-1/PD-L1 (Homo sapiens, UniProt Q9NZQ7)
T1 construct: 60535 (PD-1/NFAT-Reporter-Jurkat); host or cells: CHO cells expressing PD-L1; Jurkat cells expressing PD-1
Assay: Detection of biological activity of PD-1/PD-L1 signaling inhibition at the cellular level (NFAT luciferase reporter, PD-1/NFAT-Reporter-Jurkat cells co-cultured with TCR activator/PD-L1-CHO cells)
Type: cell-based
Settings: PD-1/NFAT-Reporter-Jurkat + TCR activator/PD-L1-CHO co-culture, 6 hours; Atezolizumab as positive control
Source text: Detection of Biological Activity of PD-1/PD-L1 Signaling Inhibition at the Cellular Level
This detection method is used for evaluating the biological activity of the compounds described in the present invention at the cellular level.
This detection method uses the luciferase reporter gene method to detect the biological activity of the compound on the inhibition of PD-1/PD-L1 signal at the cellular level. PD-1/NFAT—Reporter—Jurkat cells stably express human PD-1 and express the luciferase reporter gene regulated by NFAT elements; TCR activator/PD-L1-CHO cells stably express human PD-L1 and TCR activator elements. When the two cell lines were co-cultured, the binding of PD-1/PD-L1 inhibited the TCR signaling pathway, thereby inhibiting the expression of the downstream NFAT-controlled luciferase reporter gene. When PD-1/PD-L1 antibody or inhibitor is added, this inhibitory effect is reversed and luciferase is expressed, so that the effect of PD-1/PD-L1 inhibitor on luciferase activity can be detected.
PD-1/NFAT—Reporter—Jurkat cell (Cat: 60535) and TCR activator/PD-L1-CHO cell (Cat: 60536) were purchased from BPS Bioscience. Anti-human PD-L1 antibody (Atezolizumab, Cat: A2004) was purchased from Selleck; luciferase reporter gene expression detection kit (ONE-Glo™ Luciferase Assay System, Cat: E6120) was purchased from Promega; multifunction plate reader (SpectraMax i3x) was purchased from Molecular Devices.
The PD-1/NFAT—Reporter—Jurkat cells and TCR activator/PD-L1-CHO cells were cultured according to the routine cell culture protocol.
TCR activator/PD-L1-CHO cells were harvested and seeded into a 96-well culture plate at 35,000 cells/well in a medium volume of 100 μl and incubated overnight at 37° C. The next day, the medium was discarded, compound was added and incubated for 30 minutes, while a solvent control (dimethyl sulfoxide, DMSO, final concentration of 0.1%) and PD-L1 antibody (Atezolizumab, final concentration of about 10 nM) as positive controls were set. PD-1/NFAT-reporter-Jurkat cells were then added. After culturing for 6 hours, the luciferase activity was detected according to the instructions of the luciferase detection reagent.
Using PD-L1 antibody as a positive control, calculate the inhibition rate of PD-1/PD-L1 binding of the test compound (%)=(chemiluminescence value of compound treated wells/average value of chemiluminescence value of solvent control wells−1)/(average value of chemiluminescence value of PD-L1 antibody well/average value of chemiluminescence value of solvent control well−1)×100%.
According to the above detection method, the compounds of the present invention were evaluated for their biological activity at the cellular level, and the activity results are shown in the following table.

T1 sequence (Q9NZQ7 19-290): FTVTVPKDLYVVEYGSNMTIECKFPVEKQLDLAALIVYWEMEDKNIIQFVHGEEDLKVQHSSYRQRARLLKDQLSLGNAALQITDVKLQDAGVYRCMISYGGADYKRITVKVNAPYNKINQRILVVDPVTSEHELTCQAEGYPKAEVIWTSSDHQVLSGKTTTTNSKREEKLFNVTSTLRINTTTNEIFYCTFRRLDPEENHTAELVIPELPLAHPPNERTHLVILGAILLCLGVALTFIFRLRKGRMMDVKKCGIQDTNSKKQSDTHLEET

EC50 | Structure (SMILES)
38 nM | COc1cc(-c2cccc(-c3cccc4c3cnn4Cc3cc(OC)c(CNC[C@H]4CC[C@H](C(=O)O)CC4)cc3Cl)c2Cl)ccc1CNC[C@@H]1CCC(=O)N1 [Compound 54]
66 nM | COc1cc(-c2cccc(-c3cccc4c3cnn4Cc3cc(OC)c(CN(C)C[C@H]4CC[C@H](C(=O)O)CC4)cc3Cl)c2Cl)ccc1CNC[C@@H]1CCC(=O)N1 [Compound 55]
50 nM | COc1cc(-c2cccc(-c3cccc4c3cnn4Cc3cc(OC)c(CN[C@H]4CC[C@H](C(=O)O)CC4)cc3Cl)c2Cl)ccc1CNC[C@@H]1CCC(=O)N1 [Compound 56]
38 nM | COc1cc(-c2cccc(-c3cccc4c3cnn4Cc3cc(OC)c(CN(C)[C@H]4CC[C@H](C(=O)O)CC4)cc3Cl)c2Cl)ccc1CNC[C@@H]1CCC(=O)N1 [Compound 57]
69 nM | COc1cc(-c2cccc(-c3cccc4c3cnn4Cc3cc(OC)c(CNC[C@@H]4CCC(=O)N4)cc3Cl)c2Cl)ccc1CNC[C@@H]1CCC(=O)N1 [Compound 58]
37 nM | COc1cc(-c2cccc(-c3cccc4c3cnn4Cc3cc(OC)c(CN[C@H]4CC[C@@H](C(=O)O)CC4)cc3Cl)c2Cl)ccc1CNC[C@@H]1CCC(=O)N1 [Compound 59]
33 nM | COc1cc(-c2cccc(-c3cccc4c3cnn4Cc3cc(OC)c(CN(C)[C@H]4CC[C@@H](C(=O)O)CC4)cc3Cl)c2Cl)ccc1CNC[C@@H]1CCC(=O)N1 [Compound 60]
950 nM | COc1cc(Cn2ncc3c(-c4cccc(-c5ccc(CN6CC[C@@H](O)C6)cc5)c4Cl)cccc32)c(Cl)cc1CNC[C@H]1CC[C@H](C(=O)O)CC1 [Compound 63]
805 nM | COc1cc(Cn2ncc3c(-c4cccc(-c5ccc(CN6CC[C@@H](C(=O)O)C6)cc5)c4Cl)cccc32)c(Cl)cc1CN1CC[C@@H](O)C1 [Compound 69]
222 nM | COc1cc(Cn2ncc3c(-c4cccc(-c5ccc(CN6CC[C@@H](C(=O)O)C6)c(OC)c5)c4Cl)cccc32)c(Cl)cc1CNC[C@@H]1CCC(=O)N1 [Compound 70]
693 nM | COc1cc(Cn2ncc3c(-c4cccc(-c5ccc(CN6CC[C@@H](C(=O)O)C6)c(OC)c5)c4Cl)cccc32)c(Cl)cc1CN1CC[C@@H](O)C1 [Compound 71]
142 nM | COc1cc(Cn2ncc3c(-c4cccc(-c5ccc(CNC[C@@H]6CCC(=O)N6)cc5)c4Cl)cccc32)c(C#N)cc1CN[C@@H](CO)C(=O)O [Compound 75]
49 nM | COc1cc(Cn2ncc3c(-c4cccc(-c5ccc(CNC[C@@H]6CCC(=O)N6)cc5)c4Cl)cccc32)c([N+](=O)[O-])cc1CN[C@@H](CO)C(=O)O [Compound 76]
302 nM | COc1nc(Cn2ncc3c(-c4cccc(-c5ccc(CNC[C@@H]6CCC(=O)N6)cc5)c4Cl)cccc32)c(Cl)cc1CN[C@@H](CO)C(=O)O [Compound 80]
92 nM | COc1cc(Cn2nc(F)c3c(-c4cccc(-c5ccc(CNC[C@@H]6CCC(=O)N6)cc5)c4Cl)cccc32)c(Cl)cc1CN[C@@H](CO)C(=O)O [Compound 83]
469 nM | COc1cc(Cn2ncc3c(-c4cccc(-c5ccc(CNC[C@@H]6CCC(=O)N6)cc5)c4Cl)cccc32)c(Cl)cc1CNCc1nnn[nH]1 [Compound 85]
395 nM | O=C(O)COc1cc(Cn2ncc3c(-c4cccc(-c5ccc(CNC[C@@H]6CCC(=O)N6)cc5)c4Cl)cccc32)c(Cl)cc1CNCCO [Compound 86]
692 nM | COc1cc(-c2cccc(-c3cccc4c3cnn4Cc3cc(OC)c(CN4CC[C@@H](C(=O)O)C4)cc3Cl)c2Cl)ccc1CN1CC[C@@H](O)C1 [Compound 87]
80 nM | COc1cc(-c2cccc(-c3cccc4c3cnn4Cc3cc(OC)c(CN4CC[C@@H](C(=O)O)C4)cc3Cl)c2Cl)ccc1CNCCO [Compound 88]
1110 nM | COc1cc(Cn2ncc3c(-c4cccc(-c5ccc(CNC[C@@H]6CCC(=O)N6)cc5)c4Cl)cccc32)c(N)cc1CN[C@@H](CO)C(=O)O [Compound 89]
150 nM | COc1cc(-c2cccc(-c3cccc4c3cnn4Cc3cc(OC)c(CN4CC[C@@H](C(=O)O)C4)cc3Cl)c2C)ccc1CNC[C@@H]1CCC(=O)N1 [Compound 90]
92 nM | COc1cc(Cn2ncc3c(-c4cccc(-c5ccc(CNC[C@@H]6CCC(=O)N6)c(OC)n5)c4Cl)cccc32)c(Cl)cc1CN(C)CC1CCC(C(=O)O)CC1 (stereo partly shown) [Compound 91]

EC50 | Structure (SMILES)
15 nM | COc1cc(-c2cccc(-c3cccc4c3cnn4Cc3cc(OC)c(CN(C)C4CCC(C(=O)O)CC4)cc3[N+](=O)[O-])c2Cl)ccc1CNC[C@@H]1CCC(=O)N1 (stereo partly shown) [Compound 92]
21 nM | COc1cc(-c2cccc(-c3cccc4c3cnn4Cc3cc(OC)c(CN(C)[C@H]4C[C@H](C(=O)O)C4)cc3Cl)c2Cl)ccc1CNC[C@@H]1CCC(=O)N1 [Compound 93]
142 nM | COc1cc(-c2cccc(-c3cccc4c3cnn4Cc3cc(OC)c(CN4CCC(CC(=O)O)CC4)cc3Cl)c2Cl)ccc1CNC[C@@H]1CCC(=O)N1 [Compound 94]
15 nM | COc1cc(-c2cccc(-c3cccc4c3cnn4Cc3cc(OC)c(CN(C)[C@H]4CC[C@H](CC(=O)O)CC4)cc3Cl)c2Cl)ccc1CNC[C@@H]1CCC(=O)N1 [Compound 95]
45 nM | COc1cc(-c2cccc(-c3cccc4c3cnn4Cc3cc(OC)c(CN(C)CC4CCC(C(=O)O)CC4)cc3[N+](=O)[O-])c2Cl)ccc1CNC[C@@H]1CCC(=O)N1 (stereo partly shown) [Compound 96]
273 nM | CCOc1cc(-c2cccc(-c3cccc4c3cnn4Cc3cc(OC)c(CN(C)CC4CCC(C(=O)O)CC4)cc3Cl)c2Cl)ccc1CNC[C@@H]1CCC(=O)N1 (stereo partly shown) [Compound 97]
520 nM | COc1cc(Cn2ncc3c(-c4cccc(-c5ccc(CNC[C@@H]6CCC(=O)N6)c(OC(C)C)c5)c4Cl)cccc32)c(Cl)cc1CN(C)CC1CCC(C(=O)O)CC1 (stereo partly shown) [Compound 98]
62 nM | COc1cc(-c2cccc(-c3cccc4c3cnn4Cc3cc(OC)c(CN4CC[C@H](CC(=O)O)C4)cc3Cl)c2Cl)ccc1CNC[C@@H]1CCC(=O)N1 [Compound 99]
745 nM | COc1cc(Cn2ncc3c(-c4cccc(-c5ccc(CN(C)C[C@@H]6CCC(=O)N6)c(OC)c5)c4Cl)cccc32)c(Cl)cc1CN(C)CC1CCC(C(=O)O)CC1 (stereo partly shown) [Compound 100]
87 nM | COc1cc(Cn2ncc3c(-c4cccc(-c5cc(F)c(CNC[C@@H]6CCC(=O)N6)c(OC)c5)c4Cl)cccc32)c(Cl)cc1CN(C)CC1CCC(C(=O)O)CC1 (stereo partly shown) [Compound 101]
735 nM | COc1cc(Cn2ncc3c(-c4cccc(-c5cc(OC)c(CNC[C@@H]6CCC(=O)N6)c(OC)c5)c4Cl)cccc32)c(Cl)cc1CN(C)CC1CCC(C(=O)O)CC1 (stereo partly shown) [Compound 102]
208 nM | COc1cc(-c2cccc(-c3cccc4c3cnn4Cc3cc(OC)c(CN(C)C4CCC(C(=O)O)CC4)cc3S(C)(=O)=O)c2Cl)ccc1CNC[C@@H]1CCC(=O)N1 (stereo partly shown) [Compound 103]
46 nM | COc1cc(-c2cccc(-c3cccc4c3cnn4Cc3cc(OC)c(CN(C)[C@H]4C[C@@H](C(=O)O)C4)cc3Cl)c2Cl)ccc1CNC[C@@H]1CCC(=O)N1 [Compound 104]
20 nM | COc1cc(-c2cccc(-c3cccc4c3cnn4Cc3cc(OC)c(CN(C)C45CCC(C(=O)O)(CC4)CC5)cc3Cl)c2Cl)ccc1CNC[C@@H]1CCC(=O)N1 [Compound 105]
43 nM | COc1cc(-c2cccc(-c3cccc4c3cnn4Cc3cc(OC)c(CN(C)C4CC5(CC(C(=O)O)C5)C4)cc3Cl)c2Cl)ccc1CNC[C@@H]1CCC(=O)N1 (stereo partly shown) [Compound 106]
20 nM | COc1cc(-c2cccc(-c3cccc4c3cnn4Cc3cc(OC)c(CN(C)C4CCC(C(=O)O)CC4)cc3C#N)c2Cl)ccc1CNC[C@@H]1CCC(=O)N1 (stereo partly shown) [Compound 107]
63 nM | COc1cc(-c2cccc(-c3cccc4c3cnn4Cc3cc(OC)c(CN(C)C4CCC(CC(=O)O)CC4)cc3C#N)c2Cl)ccc1CNC[C@@H]1CCC(=O)N1 (stereo partly shown) [Compound 108]
44 nM | COc1cc(-c2cccc(-c3cccc4c3cnn4Cc3cc(OC)c(CN(C)[C@H]4CC[C@@H](CC(=O)O)CC4)cc3Cl)c2Cl)ccc1CNC[C@@H]1CCC(=O)N1 [Compound 109]
495 nM | COc1cc(-c2cccc(-c3cccc4c3cnn4Cc3cc(OC(C)C)c(CN(C)CC4CCC(C(=O)O)CC4)cc3Cl)c2Cl)ccc1CNC[C@@H]1CCC(=O)N1 (stereo partly shown) [Compound 110]
1040 nM | COc1cc(Cn2ncc3c(-c4cccc(-c5ccc(CNC[C@@H]6CCC(=O)N6)cc5)c4Cl)cccc32)c(F)cc1CN(C)CC1CCC(C(=O)O)CC1 (stereo partly shown) [Compound 111]
185 nM | COc1cc(-c2cccc(-c3cccc4c3cnn4Cc3cc(OC)c(CN(C)CC4CCC(C(=O)O)CC4)cc3C)c2Cl)ccc1CNC[C@@H]1CCC(=O)N1 (stereo partly shown) [Compound 112]

— patent publication US12583839B2, “PD-L1 antagonist compound” (ADLAI NORTYE BIOPHARMA CO., LTD., priority 2019, dated 2026)
